Source: patent US7544700B2, “Pharmaceutically active sulfonamide derivatives bearing both lipophilic and ionisable moieties as inhibitors of protein JunKinases” (Laboratoires Serono SA, priority 2000, dated 2009)

Columns and labels:
[1] = Solubility in water; type: physicochemical; settings: pH 7.4, aqueous buffer, pH of 7.4 at room temperature
Experimental: The compounds have been assessed in respect of their solubility in water, at a pH of 7.4 at room temperature. In general the solubility of compounds of formula (I) is in a range of at least 50 μg/mL solvent, more preferably of at least 100 μg/mL solvent. For instance compounds (63), (163), (198) display a solubility in water of at least 200 μg/mL solvent.

[2] = tested on: Hela luciferase reporter-c-Jun (HLR-c-Jun) cell lines; test: C-Jun reporter assay; type: cell-based; settings: Homo sapiens, MEKK-1 transfected HLR-c-Jun cells
Description: The phosphorylation of the transcriptional factor, c-jun, by JNK in the MAP kinase signal transduction pathway can be followed via a trans-reporting system such as the commercially available PathDetect® (32).
A trans-reporting system allows one to follow, via Luciferase activity, the activation status of a fusion trans-activator protein. The trans-activator protein consists of the activation domain of the transcriptional factor of interest (c-jun) fused with a yeast transcriptional activator, GAL4 DNA binding domain (dbd). The GAL4 dbd has the advantage that no known mammalian transcriptional factors can bind to it and therefore the background noise of the assay is very low.
In the present case, Hela luciferase reporter-c-Jun (HLR-c-Jun) cell lines which constitutively express GAL4-cJun were used.
The MEKK-1 gene was inserted. MEKK-1 is a MAPKKK which triggers the activation of JNK. Expression of wild type MEKK-1 is sufficient for JNK activation (33).
Once, JNK is activated it can induce the phosphorylation of the c-jun domain of the fusion trans-activator protein (GAL4dbd-cJun) which forms a dimer. The dimer is then is able to bind to a GAL4 upstream activating sequence (GAL4 UAS) of the reporter which activates Luciferase expression.
Luciferase expression is detected by luminescence using a simple assay such as Dual-Luciferase® Reporter Assay System (34) in which Renilla is used as a “control reporter”.
Inhibition of JNK is observed as a decrease in Luciferase expression and detected by a decrease in luminescence.
HLR-c-Jun cells are cultured in DMEM High Glc supplemented with 10% FCS (Sigma), 2 mM Glutamine (Gibco), P/S, Hygromycin b 100 μg/mL and G418 250 μg/mL.
The cell suspensions are diluted with medium to give about 3.5×10^6 cells/mL and […] of cell suspension are put onto 2 10 cm culture dishes containing 9 mL of culture medium.
Transfections • Control: 0.2 μg pTK Renilla, 5.8 μg pBluescript KS, 500 μl OPTIMEM (GOBCO), 18 μl Fugene 6. • Induced: 0.1 μg pMEKK1, 0.2 μg pTK Renilla, 5.7 μg pBluescript KS, 500 μl OPTIEM (GIBCO), 18 μl Fugene 6 30′ RT.
The transfection mixture is added to the plated cells. The plates are incubated over night at 37° C. in a humidified atmosphere of 5% CO2 in air.
A 96 wells plate (100 μl of culture medium per well) is prepared. Negative control (vehicle): 2 μl of DMSO is added to the 100 μl (in triplicate). […]
The medium is removed from the plate and the cells are washed two times with 100 μl PBS. […] The luminometer reading is recorded.
−50 μl of Luciferase Assay Reagent II are injected and readings are recorded at 5 and 10 minutes.
50 μl of Stop & Glo® Reagent are injected and readings are recorded at 5 and 10 minutes.
The relative luminescence is then measured: RLU Luciferase/RLU Renilla.

[3] = tested on: IL-2 release by (PMA+Ionomycin)-stimulated Jurkat cells; test: IL-2 release assay (IL-2 ELISA); type: cell-based; settings: Homo sapiens; PMA + Ionomycine stimulated Jurkat cells
Experimental: The Ability of the Compounds According to Formula I to Modulate the Inflammatory Response by Inhibiting the Release of IL-2 was Assessed Using the Following Protocol
JNK pathway activation triggers the production of inflammatory cytokines such as IL-2. JNK can be activated by external stimuli such as PMA and Ionomycine and IL-2 production can be measured via an IL-2 ELISA test. Comparative measurements with and without the compounds of the invention according to the following protocol measure the ability of the compounds to prevent to stress-mediated IL-2 release.
Jurkat cells, a human T cell leukemia cell line (American Type Culture Collection # TIB 152) were cultured in RPMI 1640 medium (Gibco, BRL) supplemented with 10% of […] fetal calf serum (FCS), Glutamine and Penstrep. The cell suspension in the medium is diluted to give 2.10^6 cells/mL. The cells were plated (2.10^5 cells/well) on a 96-well plate containing different concentrations of a compound according to formula I (final concentration of compounds, 10, 3, 1, 0.3, 0.1 μM). This mixture is incubated 30 minutes at 37° C. in a humidified CO2 atmosphere. Cells were then treated with 10 μl PMA (Phorbolmyristate-13 Acetate-12)+Ionomycine (0.1 μM and 1 μM final concentration) in all wells except negative control. In wells without compounds, 10 μl of RPMI 2% DMSO (=0.1% final) is added. Cells are incubated 24 hours at 37° C. and then the supernatant harvested (freeze at −20° C. if not used the same day) prior to performing IL-2 ELISA test on the supernatant.
IL-2 release into the medium by (PMA+Iononomycin)-stimulated Jurkat cells, in presence or absence of test compounds may be assayed by ELISA. Following the procedure described below.
Monoclonal anti-human IL-2 antibody (MAB602) (capture), biotinylated anti-human IL-2 antibody (BAF202) (detection) and recombinant human IL-2 (202-IL-010) (standard) from From R&D Systems are used. […]
• 1. […] Optical density is measured using a microtiter plate reader set to 450 nm with correction at 570 nm.

[4] = target: GST-JNK2 (Homo sapiens, UniProt P45984); test: JNK2 in vitro assay (33P incorporation into c-jun, SPA); type: biochemical
Sequence of GST-JNK2 (P45984 whole entry): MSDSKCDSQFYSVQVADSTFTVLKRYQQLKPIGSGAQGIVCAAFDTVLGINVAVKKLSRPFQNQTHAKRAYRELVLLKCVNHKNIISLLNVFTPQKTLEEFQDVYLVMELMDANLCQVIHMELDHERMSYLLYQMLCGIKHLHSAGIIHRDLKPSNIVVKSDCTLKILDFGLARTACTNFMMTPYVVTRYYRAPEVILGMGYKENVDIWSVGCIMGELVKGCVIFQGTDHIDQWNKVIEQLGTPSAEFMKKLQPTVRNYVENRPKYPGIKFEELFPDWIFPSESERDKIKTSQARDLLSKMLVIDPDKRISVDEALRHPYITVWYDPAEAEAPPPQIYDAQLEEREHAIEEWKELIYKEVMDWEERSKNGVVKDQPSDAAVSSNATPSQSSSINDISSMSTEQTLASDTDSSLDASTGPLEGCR
Experimental: (§1) The phosphorylation of c-jun by JNK2 or JNK3 may be followed by monitoring the incorporation of ^33P into c-jun following the protocol below. The inhibitory activity of the compounds according to formula I, in respect of c-jun phosphorylation through JNK, is determined by calculating the phosphorylation activity of a JNK in the presence or absence of the test compounds according to formula I.
(§2) JNK3 and/or -2 assays are performed in 96 well NM plates: incubation of 0.5 μg of recombinant, pre-activated GST-JNK3 or GST-JNK2 with 1 μg of recombinant, biotinylated GST-c-Jun and 2 μM ^33γ-ATP (2 nCi/μl), in the presence or absence of compounds according to formula I and in a reaction volume of 50 μl containing 50 mM Tris-HCl, pH 8.0; 10 mM MgCl2; 1 mM Dithiothreitol, and 100 μM NaVO4. The incubation is performed for 120 min. at R.T and stopped upon addition of 200 μl of a solution containing 250 μg of Streptavidine-coated SPA beads (Amersham, Inc.)*, 5 mM EDTA, 0.1% Triton X-100 and 50 μM ATP, in phosphate saline buffer. After incubation for 60 minutes at RT, beads are sedimented by centrifugation at 1500×g for 5 minutes, resuspended in 200 μl of PBS containing 5 mM EDTA, 0.1% Triton X-100 and 50 μM ATP and the radioactivity measured in a scintillation β counter, following sedimentation of the beads as described above. By replacing biotinylated GST-c Jun with biotinylated GST-1ATF2 or biotinylated myelin basic protein, this assay may also be used to measure inhibition of pre-activated p38 and ERK MAP Kinases, respectively.

[5] = target: GST-JNK3 (Homo sapiens, UniProt P53779); test: JNK3 in vitro assay (33P incorporation into c-jun, SPA); type: biochemical
Sequence of GST-JNK3 (P53779 whole entry): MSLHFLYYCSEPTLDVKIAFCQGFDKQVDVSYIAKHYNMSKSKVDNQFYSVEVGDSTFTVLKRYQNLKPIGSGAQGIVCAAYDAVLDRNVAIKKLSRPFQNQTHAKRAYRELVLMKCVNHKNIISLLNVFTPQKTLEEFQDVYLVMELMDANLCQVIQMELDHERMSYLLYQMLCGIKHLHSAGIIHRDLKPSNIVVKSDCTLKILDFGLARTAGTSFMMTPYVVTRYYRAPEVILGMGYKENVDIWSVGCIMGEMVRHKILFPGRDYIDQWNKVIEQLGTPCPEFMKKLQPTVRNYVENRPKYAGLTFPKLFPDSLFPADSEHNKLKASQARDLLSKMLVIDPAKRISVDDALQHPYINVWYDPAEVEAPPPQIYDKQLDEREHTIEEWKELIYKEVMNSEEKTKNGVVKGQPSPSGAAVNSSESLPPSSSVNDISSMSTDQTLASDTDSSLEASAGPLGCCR
Experimental: as §1, §2

[6] = target: JNK1 (Homo sapiens, UniProt P45983); test: JNK1 inhibition; type: biochemical; settings: read-out: inhibition (IC50) with regard to JNK1
Sequence of JNK1 (P45983 whole entry, species assumed): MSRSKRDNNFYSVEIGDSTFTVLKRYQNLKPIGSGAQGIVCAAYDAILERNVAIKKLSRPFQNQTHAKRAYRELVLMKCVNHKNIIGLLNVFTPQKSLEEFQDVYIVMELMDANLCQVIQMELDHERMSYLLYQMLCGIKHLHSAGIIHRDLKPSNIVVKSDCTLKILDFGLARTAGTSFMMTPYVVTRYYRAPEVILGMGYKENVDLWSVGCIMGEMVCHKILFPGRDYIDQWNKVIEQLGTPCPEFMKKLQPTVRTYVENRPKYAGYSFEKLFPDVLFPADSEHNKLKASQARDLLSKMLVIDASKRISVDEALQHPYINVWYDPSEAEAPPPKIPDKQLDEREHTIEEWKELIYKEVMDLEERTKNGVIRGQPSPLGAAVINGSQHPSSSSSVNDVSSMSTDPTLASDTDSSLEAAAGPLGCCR

IC50 [4]	IC50 [5]	SMILES	also measured
–	–	CCCCCCN(C)C1CCN(S(=O)(=O)c2ccc(CNC(=O)c3ccc(Cl)cc3)s2)CC1 [Example 163, 4-chloro-N-{[5-({4-[hexyl(methyl)amino]piperidin-1-yl}sulfonyl)thien-2-yl]methyl}benzamide]	solubility [1]: ≥ 200 µg/mL
–	–	COc1cccc(C(=O)NCc2ccc(S(=O)(=O)N3CCC(NCc4c(C)c(C)c(C)c(C)c4C)CC3)s2)c1 [Example 10, 3-methoxy-N-{[5-({4-[(2,3,4,5,6-pentamethylbenzyl)amino]piperidin-1-yl}sulfonyl)thien-2-yl]methyl}benzamide]	IC50 [2]: < 700 nM
–	–	COc1cccc(C(=O)NCc2ccc(S(=O)(=O)N3CCC(NCc4ccc(S(=O)(=O)C(F)(F)F)cc4)CC3)s2)c1 [Example 64, 3-methoxy-N-[(5-{[4-({4-[(trifluoromethyl)sulfonyl]benzyl}-amino)piperidin-1-yl]sulfonyl}thien-2-yl)methyl]benzamide]	IC50 [3]: < 800 nM
< 600 nM	< 600 nM	O=C(NCc1ccc(S(=O)(=O)N2CCC(NCCC3CCCCC3)CC2)s1)c1ccc(Cl)cc1 [Example 70, 4-chloro-N-{[5-({4-[(2-cyclohexylethyl)amino]piperidin-1-yl}sulfonyl)thien-2-yl]methyl}benzamide]	–
–	< 600 nM	COc1cccc(C(=O)NCc2ccc(S(=O)(=O)N3CCCC(NCCC4CCCCC4)CC3)s2)c1 (stereo not drawn) [Example 132, N-{[5-({4-[(2-cyclohexylethyl)amino]azepan-1-yl}sulfonyl)thien-2-yl]methyl}-3-methoxy-benzamide]	–
–	–	CCCCCCCCCCNC1CCN(S(=O)(=O)c2ccc(CNC(=O)c3cccc(OC)c3)s2)CC1 [Example 86, 3-methoxy-N-[(5-{[4-(decylamino)piperidin-1-yl]sulfonyl}thien-2-yl)methyl]benzamide]	IC50 [6]: 100 to 700 nM
–	–	O=C(NCc1ccc(S(=O)(=O)N2CCC(NCc3ccc(S(=O)(=O)C(F)(F)F)cc3)CC2)s1)c1ccc(Cl)cc1 [Example 117, 4-chloro-N-[(5-{[4-({4-[(trifluoromethyl)sulfonyl]benzyl}amino)-1-piperidinyl]sulfonyl}-2-thienyl)methyl]benzamide]	IC50 [2]: < 700 nM
< 600 nM	< 600 nM	CCCCCNCC1CCN(S(=O)(=O)c2ccc(CNC(=O)c3cccc(OC)c3)s2)CC1 [Example 195, 3-methoxy-N-{[5-({4-[(pentylamino)methyl]piperidin-1-yl}sulfonyl)-thien-2-yl]methyl}benzamide]	–
< 600 nM	< 600 nM	COc1cccc(C(=O)NCc2ccc(S(=O)(=O)N3CCC(NCCCN4CCOCC4)C3)s2)c1 (stereo not drawn) [Example 176, 3-methoxy-N-{[5-({3-[(3-morpholin-4-ylpropyl)amino]pyrrolidin-1-yl}sulfonyl)thien-2-yl]methyl}benzamide]	–
–	–	CCCOc1ccc(CNC2CCN(S(=O)(=O)c3ccc(CNC(=O)c4cccc(OC)c4)s3)CC2)cc1 [Example 11, 3-methoxy-N-{[5-({4-[(4-propoxybenzyl)amino]piperidin-1-yl}sulfonyl)thien-2-yl]methyl}benzamide]	IC50 [2]: < 700 nM
< 600 nM	< 600 nM	CCCCCCN(CC1CCCCC1)C1CCN(S(=O)(=O)c2ccc(CNC(=O)c3ccc(Cl)cc3)s2)CC1 [Example 155, 4-chloro-N-{[5-({4-[(cyclohexylmethyl)(hexyl)-amino]piperidin-1-yl}sulfonyl)thien-2-yl]methyl}-benzamide]	–
